Measurements: patent publication US20240131352A1, “NON-INVASIVE CANCER TREATMENT” (SCIENTIA BIOTECH S.L, priority 2021, published 2024)
Where two headings read alike, the source gives them in different places. Marks after values point to notes of the source that are not given here.

Columns and labels:
[1] = system: U87MG cells; details: 240 min + HT 42° C. 10 min; for effect on cell viability for U87MG cells: 20 μM compound minute 210 to 240 + TTF 300 kHz, about 8 μT; for effect on viable U87MG cells of TTF+HT+PT: 20 μM pterostilbene minute 120 to 240 + TTF 300 kHz, 8 μT
Protocol: The hyperthermia applied was 42° C. for 10 minutes (from minute 120 to minute 130). 20 μM of pterostilbene was applied for 120 minutes (from minute 120 to minute 240). […] The magnetic field was applied using a solenoid with approximately 100 μT magnetic flux density at the central axis of the solenoid. The solenoid was placed at a distance from the cell cultures such that the average field strength on the surface of the culture flasks where the cells were attached was 8 μT.
FIGS. 15B to 15F show microscopic images of in vitro U87MG cell cultures after exposed to different external treatments.
The data are means with standard deviation for four independent experiments. Data labelled * indicates a P value (student's t test) less than 0.01 compared to the control. Data labelled + indicates a P value (student's t test) less than 0.01 compared to the TTF-only data. Data labelled # indicates a P value (student's t test) less than 0.01 compared to the TTF+HT data.

[2] = system: GSH in A2058 (melanoma) cells; test: GSH content of A2058 cells in vitro (GSH depletion); assay type: cell-based
Protocol: (§2) For rows including “TTF”, a TT-Field was applied at 200 kHz for 240 mins (from minute 0 to minute 240) for a field intensity of 1.5 μT. For rows including “HT”, hyperthermia applied was at 42 ° C. for U87MG and 52° C. for AsPC1 and A2058 for 20 minutes (from minute 120 to minute 140). For rows including “BSO”, 1 mM of buthione sulfoximine, a specific inhibitor of GSH synthesis, was added to the cell culture medium at the time the cells of the culture were seeded. When HT and TTF were applied in combination with BSO, the HT and TTF were applied 24 hours after seeding.

[3] = system: GSH in U87 (GBM) cells; test: GSH content of U87MG cells in vitro (GSH depletion); assay type: cell-based
Protocol: as §2

[4] = system: GSH in AsPC1 (Pancreatic adenocarcinoma) cells; test: GSH content of AsPC1 cells in vitro (GSH depletion); assay type: cell-based
Protocol: as §2

[5] = system: AsPC1 (pancreatic adenocarcinoma, ATCC) cells; details: for effect on viable AsPC1 cells of TTF+HT+GEM+PT: 25 μM gemcitabine + 20 μM pterostilbene minute 0 to 240 + TTF 200 kHz, 1.5 μT + HT 52° C. 20 min, all four in combination
Protocol: For TTF data the TT-Field applied was at 200 kHz for 240 mins (from minute 0 to minute 240) for a field intensity of 1.5 μT. For HT data the hyperthermia applied was 52° C. for 20 minutes (from minute 120 to minute 140). For PT data 20 uM of pterostilbene was applied from minute 0 to minute 240.
For TTF data, the TT-Field applied was at 200 kHz for 240 mins (from minute 0 to minute 240) for a field intensity of 1.5 μT. For HT data the hyperthermia applied was 52° C. for 20 minutes (from minute 120 to minute 140). For GEM data 25 μM of gemcitabine was applied from minute 0 to minute 240. For PT data 20 μM of pterostilbene was applied from minute 0 to minute 240.
(§3) For rows including “TTF”, a TT-Field was applied at 200 kHz for 240 mins (from minute 0 to minute 240) for a field intensity of 1.5 μT. For rows including “HT”, hyperthermia applied was at 42 ° C. for U87MG and 52° C. for AsPC1 and A2058 for 20 minutes (from minute 120 to minute 140).

[6] = system: A549 (lung carcinoma); test: heating + tumour treating fields + PT in vitro, A549; assay type: cell-based
From the text: (§1) The effectiveness of therapy by heating in combination with tumour treating fields and exposure to PT is also observed in other cell lines in vitro, such as A2058 (melanoma), AsPC-1 (pancreas carcinoma), A549 (lung carcinoma), MCF-7 (mammary gland carcinoma), HT-29 (colorectal carcinoma), PC-3 (prostate carcinoma), SK-OV-3 (ovarian carcinoma and HepG2 (hepatocarcinoma).

[7] = system: SK-OV-3 (ovarian carcinoma); test: heating + tumour treating fields + PT in vitro, SK-OV-3; assay type: cell-based; details: SK-OV-3, in vitro
From the text: as §1

[8] = system: MCF-7 (mammary gland carcinoma); test: heating + tumour treating fields + PT in vitro, MCF-7; assay type: cell-based; details: MCF-7, in vitro
From the text: as §1

[9] = system: GL261; test: TTF+HT+PT therapy on glioblastoma line GL261; assay type: cell-based; details: compared with U87MG
[10] = system: HT-29 (colorectal carcinoma); test: heating + tumour treating fields + PT in vitro, HT-29; assay type: cell-based; details: HT-29, in vitro
From the text: as §1

[11] = system: PC-3 (prostate carcinoma); test: heating + tumour treating fields + PT in vitro, PC-3; assay type: cell-based; details: PC-3, in vitro
From the text: as §1

[12] = system: HepG2 (hepatocarcinoma); test: heating + tumour treating fields + PT in vitro, HepG2; assay type: cell-based
From the text: as §1

[13] = system: C6; test: TTF+HT+PT therapy on glioblastoma line C6; assay type: cell-based; details: compared with U87MG
[14] = system: A2058 (melanoma, ATCC) cells
Protocol: For TTF data, the TT-Field applied was at 200 kHz for 240 mins (from minute 0 to minute 240) for a field intensity of 1.5 μT. For HT data the hyperthermia applied was 52° C. for 20 minutes (from minute 120 to minute 140). For PT data 20 μM of pterostilbene was applied from minute 0 to minute 240.
For TTF data, the TT-Field applied was at 200 kHz for 240 mins (from minute 0 to minute 240) for a field intensity of 1.5 μT. For HT data the hyperthermia applied was 52° C. for 20 minutes (from minute 120 to minute 140). For PAC data 10 μM of paclitaxel was applied from minute 0 to minute 240.
as §3

[15] = 1 mM BSO + TTF (200 kHz, 1.5 μT, 240 min) + HT (52° C., 20 min) applied 24 hours after seeding
[16] = 1 mM BSO added at seeding, BSO alone, mean ± SD, five experiments

OC[C@H]1O[C@@H](Oc2cc(O)cc(/C=C/c3ccc(O)cc3)c2)[C@H](O)[C@@H](O)[C@@H]1O [G-diOH-s, 3-glucoside-5,4′-dihydroxystilbene]
effect on cell viability for U87MG cells [1]: significant reduction in cell viability

Buthionine sulfoximine [BSO]
GSH [2, 15]: 2.06 ± 0.51*^+ nmol/10^6 cells | GSH [2, 16]: 2.24 ± 0.82 nmol/10^6 cells | GSH ([3]; 1 mM BSO + TTF (200 kHz, 1.5 μT, 240 min) + HT (42 °C, 20 min) applied 24 hours after seeding): 1.92 ± 0.59*^+ nmol/10^6 cells | GSH [3, 16]: 2.10 ± 0.70 nmol/10^6 cells | GSH [4, 15]: 2.49 ± 0.66*^+ nmol/10^6 cells | GSH [4, 16]: 3.14 ± 0.79 nmol/10^6 cells

Oc1ccc(C=Cc2cc(O)cc(O)c2)cc1 [resveratrol]
effect on cell viability for U87MG cells [1]: do not eliminate all U87MG cell growing in vitro

Nc1ccn([C@@H]2O[C@H](CO)[C@@H](O)C2(F)F)c(=O)n1 [GEM, gemcitabine]
effect on viable AsPC1 cells of TTF+HT+GEM+PT [5]: eliminated the AsPC1 cells

COc1cc(/C=C/c2ccc(O)cc2)cc(OC)c1 [pterostilbene, trans-3,5-dimethoxy-4′-hydroxystilbene]
effectiveness of therapy by heating in combination with tumour treating fields and exposure to PT [6]: also observed | effectiveness of therapy by heating in combination with tumour treating fields and exposure to PT [7]: also observed | effectiveness of therapy by heating in combination with tumour treating fields and exposure to PT [8]: also observed | effectiveness of TTF+HT+PT therapy [9]: same effectiveness | effect on viable AsPC1 cells of TTF+HT+GEM+PT [5]: eliminated the AsPC1 cells | effectiveness of therapy by heating in combination with tumour treating fields and exposure to PT ([5]; AsPC-1 (pancreas carcinoma), in vitro): also observed | effectiveness of therapy by heating in combination with tumour treating fields and exposure to PT [10]: also observed | effectiveness of therapy by heating in combination with tumour treating fields and exposure to PT [11]: also observed | effect on viable U87MG cells of TTF+HT+PT [1]: effectively eliminates all cells in vitro | effect on viable U87MG cells of TTF+HT+PT ([1]; listed as PT): completely eliminates all U87MG growing cells | effectiveness of therapy by heating in combination with tumour treating fields and exposure to PT [12]: also observed | effectiveness of TTF+HT+PT therapy [13]: same effectiveness | effect on viability of A2058 cells of TTF+HT+PT ([14]; 20 μM pterostilbene minute 0 to 240 + TTF 200 kHz, 1.5 μT + HT 52° C. 20 min, compared to TTF+HT): significantly reduced the viability of the cells | effectiveness of therapy by heating in combination with tumour treating fields and exposure to PT ([14]; A2058 (melanoma), in vitro): also observed

CC(=O)O[C@H]1C(=O)[C@@]2(C)[C@H]([C@H](OC(=O)c3ccccc3)[C@]3(O)C[C@H](OC(=O)[C@H](O)[C@@H](NC(=O)c4ccccc4)c4ccccc4)C(C)=C1C3(C)C)[C@]1(OC(C)=O)CO[C@@H]1C[C@@H]2O [PAC, (2α,4α,5β,7β,10β,13α)-4,10-Bis(acetyloxy)-13-{[(2R,3 S)-3(benzoylamino)-2-hydroxy-3-phenylpropanoyl]oxy}-1,7-dihydroxy-9-oxo-5,20-epoxytax-11-en-2-yl benzoate]
effect on viable A2058 cells of TTF+HT+PAC ([14]; 10 μM paclitaxel minute 0 to 240 + TTF 200 kHz, 1.5 μT + HT 52° C. 20 min): eliminated the cells
